Source: patent US9029325B2, “Amylin analogues and pharmaceutical compositions thereof” (Novo Nordisk A/S, priority 2011, dated 2015)
Starred links: 1 amine or outer side, 2 acyl side, 3 side chain; linkers in the order of their positions; H or OH if unused. Positions of bridges follow the written chain, without caps; N, C: chain ends. Residues, ends and D or L forms follow the SMILES beside them. *: point of attachment. C20 diacid = O=C(O)CCCCCCCCCCCCCCCCCCC(=O)*; γGlu = O=C(O)[C@H](CCC(=O)[*:2])N[*:1]

Assay: Assay (I) efficacy testing on appetite (food intake), ad libitum fed rat model
Type: in vivo, Sprague Dawley (SD) rats
From the text: Sprague Dawley (SD) rats from Taconic Europe, Denmark are used for the experiments. The rats have a body weight 200-250 g at the start of experiment. The rats arrive at least 10-14 days before start of experiment to allow acclimatization to experimental settings. During this period the animals are handled at least 2 times. After arrival rats are housed individually for one week in a reversed light/dark phase (meaning that lights are off during daytime and on during nighttime) […]. Since rats are normally active and eat their major part of their daily food intake during the dark period, rats are dosed in the morning right before lights are turned off. This set-up results in the lowest data variation and highst test sensitivity. The experiment is conducted in the rats' home cages and rats have free access to food and water througout the acclimatization period and the experiment period. Each dose of derivative is tested in a group of 5-8 rats. A vehicle group of 6-8 rats is included in each set of testing. Rats are dosed once according to body weight with a 0.01-3 mg/kg solution administered intraperitoneally (ip), orally (po) or subcutaneously (sc). The time of dosing is recorded for each group. After dosing, the rats are returned to their home cages, where they then have access to food and water. The food consumption is recorded individually continuously by on-line registration or manually every hour for 7 hours, and then after 24 h and sometimes 48 h. At the end of the experimental session, the animals are euthanised.
The individual data are recorded in Microsoft excel sheets. Outliers are excluded after applying the Grubbs statistical evaluation test for outliers, and the result is presented graphically using the GraphPad Prism program.

SMILES	Food intake reduction 0-24 h 3 nmol/kg (%) (0-24 h)	Food intake reduction 24-48 h 3 nmol/kg (%) (24-48 h)	Food intake reduction 0-24 h 30 nmol/kg (%) (30 nmol/kg, 0-24 h)	Food intake reduction 24-48 h 30 nmol/kg (%) (30 nmol/kg, 24-48 h)
CC[C@H](C)[C@H](NC(=O)[C@H](CCC(=O)O)NC(=O)CNC(=O)[C@H](Cc1ccccc1)NC(=O)[C@H](CC(N)=O)NC(=O)[C@H](CC(N)=O)NC(=O)[C@H](CO)NC(=O)[C@H](CO)NC(=O)[C@H](CCCNC(=N)N)NC(=O)[C@H](Cc1c[nH]cn1)NC(=O)[C@H](CC(C)C)NC(=O)[C@H](Cc1ccccc1)NC(=O)[C@H](CCC(=O)O)NC(=O)[C@H](C)NC(=O)[C@H](CC(C)C)NC(=O)[C@H](CCCNC(=N)N)NC(=O)[C@H](CCC(N)=O)NC(=O)[C@@H](NC(=O)[C@H](C)NC(=O)[C@@H]1CSSC[C@H](NC(=O)[C@H](Cc2c[nH]cn2)NC(=O)CC[C@H](NC(=O)CCCCCCCCCCCCCCCCCCC(=O)O)C(=O)O)C(=O)N[C@@H](CC(N)=O)C(=O)N[C@@H]([C@@H](C)O)C(=O)N[C@@H](C)C(=O)N[C@@H]([C@@H](C)O)C(=O)N1)[C@@H](C)O)C(=O)N[C@@H](CC(C)C)C(=O)N[C@@H](CO)C(=O)N[C@@H](CCCNC(=N)N)C(=O)N[C@H](C(=O)N[C@@H](CC(N)=O)C(=O)N[C@H](C(=O)NCC(=O)N[C@@H](CO)C(=O)N[C@@H](CC(N)=O)C(=O)N[C@H](C(=O)N[C@@H](Cc1ccc(O)cc1)C(N)=O)[C@@H](C)O)C(C)C)[C@@H](C)O [compound 7] ({C20 diacid-γGlu}-HCNTATCATQRLAEFLHRSSNNFGEILSRTNVGSNTY-NH2; disulfide 2-7 (inferred); C-terminus assumed)	53%	46%		
CC[C@H](C)[C@H](NC(=O)[C@@H]1CCCN1C(=O)CNC(=O)[C@H](Cc1ccccc1)NC(=O)[C@H](CO)NC(=O)[C@H](CO)NC(=O)[C@H](CO)NC(=O)[C@H](CO)NC(=O)[C@H](CCCNC(=N)N)NC(=O)[C@H](Cc1c[nH]cn1)NC(=O)[C@H](CC(C)C)NC(=O)[C@H](Cc1ccccc1)NC(=O)[C@H](CCC(=O)O)NC(=O)[C@H](C)NC(=O)[C@H](CC(C)C)NC(=O)[C@H](CCCNC(=N)N)NC(=O)[C@H](CCC(N)=O)NC(=O)[C@@H](NC(=O)[C@H](C)NC(=O)[C@@H]1CSSC[C@H](NC(=O)[C@H](Cc2c[nH]cn2)NC(=O)CC[C@H](NC(=O)CCCCCCCCCCCCCCCCCCC(=O)O)C(=O)O)C(=O)N[C@@H](CC(N)=O)C(=O)N[C@@H]([C@@H](C)O)C(=O)N[C@@H](C)C(=O)N[C@@H]([C@@H](C)O)C(=O)N1)[C@@H](C)O)C(=O)N[C@@H](CC(C)C)C(=O)N1CCC[C@H]1C(=O)N1CCC[C@H]1C(=O)N[C@H](C(=O)N[C@@H](CC(=O)O)C(=O)N[C@H](C(=O)NCC(=O)N[C@@H](CO)C(=O)N[C@@H](CC(=O)O)C(=O)N[C@H](C(=O)N[C@@H](Cc1ccc(O)cc1)C(N)=O)[C@@H](C)O)C(C)C)[C@@H](C)O [compound 9] ({C20 diacid-γGlu}-HCNTATCATQRLAEFLHRSSSSFGPILPPTDVGSDTY-NH2; disulfide 2-7 (inferred); C-terminus assumed)	39%	32%		
CC[C@H](C)[C@H](NC(=O)[C@@H]1CCCN1C(=O)CNC(=O)[C@H](Cc1ccccc1)NC(=O)[C@H](CC(N)=O)NC(=O)[C@H](CC(N)=O)NC(=O)[C@H](CO)NC(=O)[C@H](CO)NC(=O)[C@H](Cc1c[nH]cn1)NC(=O)[C@H](CCCNC(=N)N)NC(=O)[C@H](CC(C)C)NC(=O)[C@H](Cc1ccccc1)NC(=O)[C@H](CCC(=O)O)NC(=O)[C@H](C)NC(=O)[C@H](CC(C)C)NC(=O)[C@H](CCCNC(=N)N)NC(=O)[C@H](CCC(N)=O)NC(=O)[C@@H](NC(=O)[C@H](C)NC(=O)[C@@H]1CSSC[C@H](NC(=O)[C@H](Cc2c[nH]cn2)NC(=O)[C@H](Cc2c[nH]cn2)NC(=O)[C@H](Cc2c[nH]cn2)NC(=O)CC[C@H](NC(=O)CCCCCCCCCCCCCCCCCCC(=O)O)C(=O)O)C(=O)N[C@@H](CC(N)=O)C(=O)N[C@@H]([C@@H](C)O)C(=O)N[C@@H](C)C(=O)N[C@@H]([C@@H](C)O)C(=O)N1)[C@@H](C)O)C(=O)N[C@@H](CC(C)C)C(=O)N1CCC[C@H]1C(=O)N1CCC[C@H]1C(=O)N[C@H](C(=O)N[C@@H](CC(N)=O)C(=O)N[C@H](C(=O)NCC(=O)N[C@@H](CO)C(=O)N[C@@H](CC(N)=O)C(=O)N[C@H](C(=O)N[C@@H](Cc1ccc(O)cc1)C(N)=O)[C@@H](C)O)C(C)C)[C@@H](C)O [compound 12] ({C20 diacid-γGlu}-HHHCNTATCATQRLAEFLRHSSNNFGPILPPTNVGSNTY-NH2; disulfide 4-9)			70%	45%
CC[C@H](C)[C@H](NC(=O)[C@@H]1CCCN1C(=O)CNC(=O)[C@H](Cc1ccccc1)NC(=O)[C@H](CC(N)=O)NC(=O)[C@H](CC(N)=O)NC(=O)[C@H](CO)NC(=O)[C@H](CO)NC(=O)[C@H](CCCNC(=N)N)NC(=O)[C@@H](NC(=O)[C@H](CC(C)C)NC(=O)[C@H](Cc1ccccc1)NC(=O)[C@H](CCC(=O)O)NC(=O)[C@H](C)NC(=O)[C@H](CC(C)C)NC(=O)[C@H](CCCNC(=N)N)NC(=O)[C@H](CCC(N)=O)NC(=O)[C@@H](NC(=O)[C@H](C)NC(=O)[C@@H]1CSSC[C@H](NC(=O)[C@H](Cc2c[nH]cn2)NC(=O)CC[C@H](NC(=O)CCCCCCCCCCCCCCCCCCC(=O)O)C(=O)O)C(=O)N[C@@H](CC(N)=O)C(=O)N[C@@H]([C@@H](C)O)C(=O)N[C@@H](C)C(=O)N[C@@H]([C@@H](C)O)C(=O)N1)[C@@H](C)O)C(C)C)C(=O)N[C@@H](CC(C)C)C(=O)N1CCC[C@H]1C(=O)N1CCC[C@H]1C(=O)N[C@H](C(=O)N[C@@H](CC(N)=O)C(=O)N[C@H](C(=O)NCC(=O)N[C@@H](CO)C(=O)N[C@@H](CC(N)=O)C(=O)N[C@H](C(=O)N[C@@H](Cc1ccc(O)cc1)C(N)=O)[C@@H](C)O)C(C)C)[C@@H](C)O [compound 15] ({C20 diacid-γGlu}-HCNTATCATQRLAEFLVRSSNNFGPILPPTNVGSNTY-NH2; disulfide 2-7 (inferred); C-terminus assumed)	56%	59%		
CC[C@H](C)[C@H](NC(=O)[C@@H]1CCCN1C(=O)CNC(=O)[C@H](Cc1ccccc1)NC(=O)[C@H](CC(N)=O)NC(=O)[C@H](CC(N)=O)NC(=O)[C@H](CO)NC(=O)[C@H](CO)NC(=O)[C@H](Cc1c[nH]cn1)NC(=O)[C@H](Cc1c[nH]cn1)NC(=O)[C@H](CC(C)C)NC(=O)[C@H](Cc1ccccc1)NC(=O)[C@H](CCC(=O)O)NC(=O)[C@H](C)NC(=O)[C@H](CC(C)C)NC(=O)[C@H](CCCNC(=N)N)NC(=O)[C@H](CCC(N)=O)NC(=O)[C@@H](NC(=O)[C@H](C)NC(=O)[C@@H]1CSSC[C@H](NC(=O)[C@H](Cc2c[nH]cn2)NC(=O)[C@H](Cc2c[nH]cn2)NC(=O)CC[C@H](NC(=O)CCCCCCCCCCCCCCCCCCC(=O)O)C(=O)O)C(=O)N[C@@H](CC(N)=O)C(=O)N[C@@H]([C@@H](C)O)C(=O)N[C@@H](C)C(=O)N[C@@H]([C@@H](C)O)C(=O)N1)[C@@H](C)O)C(=O)N[C@@H](CC(C)C)C(=O)N1CCC[C@H]1C(=O)N1CCC[C@H]1C(=O)N[C@H](C(=O)N[C@@H](CC(N)=O)C(=O)N[C@H](C(=O)NCC(=O)N[C@@H](CO)C(=O)N[C@@H](CC(N)=O)C(=O)N[C@H](C(=O)N[C@@H](Cc1ccc(O)cc1)C(N)=O)[C@@H](C)O)C(C)C)[C@@H](C)O [compound 17] ({C20 diacid-γGlu}-HHCNTATCATQRLAEFLHHSSNNFGPILPPTNVGSNTY-NH2; disulfide 3-8 (inferred); C-terminus assumed)	40%	22%		
